The values that follow are results of earlier work, collected in patent EP3373945B1, “AN ORAL DRUG FORMULATION COMPRISING SILYBIN” (ISTITUTO BIOCHIMICO ITALIANO GIOVANNI LORENZINI S.p.A., priority 2015, dated 2017).

In brackets after ≈: the same amount, converted by molar mass.

Regarding `COc1cc(C2Oc3cc([C@H]4Oc5cc(O)cc(O)c5C(=O)[C@@H]4O)ccc3OC2CO)ccc1O` (stereo partly shown) [silybin], the water solubility is 430 µg/mL (≈ 891 µM).
